Results as given in US7087616B2, “Pyrazolyl pyrimidines” (Bayer CropScience AG, priority 2001, dated 2006).
Read-outs that look alike come from different tables or passages of the source.

Tests used:
Meloidogyne incognita = test: Meloidogyne Test; type: in vivo; settings: 20 ppm, nematicidal action by gall formation on lettuce
Experimental: (§1) To produce a suitable preparation of active compound, 1 part by weight of active compound is mixed with the stated amounts of solvent and emulsifier, and the concentrate is diluted with water to the desired concentration.
Containers are filled with sand, solution of active compound, Meloidogyne incognita egg/larvae suspension and lettuce seeds. The lettuce seeds germinate and the plants develop. On the roots, galls are formed.
After the desired period of time, the nematicidal action is determined in % by the gall formation. 100% means that no galls were found; 0% means that the number of galls on the treated plants corresponds to that of the untreated control.
The amount of solvent, amount of emulsifier, active compounds, active compound concentrations and test results are shown in the Tables below.

[1] = system: cotton aphid (Aphis gossypii); test: Aphis gossypii Test; type: in vivo; settings: 144 h, read-out: Kill rate in % after 6d
Experimental: (§2) To produce a suitable preparation of active compound, 1 part by weight of active compound is mixed with the stated amounts of solvent and emulsifier, and the concentrate is diluted with emulsifier-containing water to the desired concentration.
Cotton leaves (Gossypium hirsutum) which are heavily infested by the cotton aphid (Aphis gossypii) are treated by being dipped into the preparation of active compound of the desired concentration.
(§3) After the desired period of time, the kill in % is determined. 100% means that all aphids have been killed; 0% means that none of the aphids have been killed.

[2] = system: larvae of the mustard beetle (Phaedon cochlearae); test: Phaedon Larvae Test; type: in vivo; settings: 500 ppm; cabbage leaves dipped
Experimental: [table] To produce a suitable preparation of active compound, 1 part by weight of active compound is mixed with the stated amounts of solvent and emulsifier, and the concentrate is diluted with emulsifier-containing water to the desired concentration. Cabbage leaves (Brassica oleracea) are treated by being dipped into the preparation of active compound of the desired concentration and are populated with larvae of the mustard beetle (Phaedon cochlearae) while the leaves are still moist.

[3] = Aust. J. Chem. 1980, 33, 2291–2298; cited from earlier work
[4] = system: peach aphids (Myzus persicae); test: Myzus Test/Cabbage; type: in vivo; settings: 144 h, read-out: Kill rate in % after 6d
Experimental: as §2
Cabbage leaves (Brassica oleracea) which are heavily infested by peach aphids (Myzus persicae) are treated by being dipped into the preparation of active compound of the desired concentration.
as §3
Amounts of solvent, amounts of emulsifier, active compounds, active compound concentrations and test results are shown in the Tables below.

[5] = system: green peach aphids (Myzus persicae); test: Myzus Test/Broad Beans; type: in vivo; settings: broad bean seedlings dipped
Experimental: To produce a suitable preparation of active compound, 1 part by weight of active compound is mixed with the stated amount of solvent and the stated amount of emulsifier, and the concentrate is diluted with emulsifier-containing water to the desired concentrations.
Broad bean (Vicia faba minor) seedlings which are infested by green peach aphids (Myzus persicae) are dipped into a preparation of active compound of the desired concentration and placed into a plastic box.
After the desired period of time, the kill in % is determined. 100% means that all animals have been killed; 0% means that none of the animals have been killed.

Aphis gossypii = test: Critical Concentration/Root-systemic Action; type: in vivo; settings: 20 ppm (mg/l soil); root-systemic action, cucumber plants
Experimental: as §1
The preparation of active compound is intimately mixed with soil. The concentration of the active compound in the preparation is of practically no importance here, only the amount by weight of active compound per unit volume of soil, which is given in ppm (=mg/l), being decisive. The treated soil is transferred into pots and these are planted with cucumber plants at the cotyledon stage. In this way, the active compound can be taken up from the plant and be transported into the leaves.
After a further 7 days, evaluation is carried out by counting or estimating the dead animals. The root-systemic action of the active compound is deduced from the mortality figures. It is 100% if all test animals have been killed and 0% if just as many test insects are still alive as in the case of the untreated controls.

[6] = Table A 2, emulsifier 2 parts by weight

## O=C(O)CSc1nccc(-n2cc(-c3ccc(Cl)cc3)cn2)n1
Meloidogyne incognita; [6]
  Kill rate in % after 14d: 80%

## CCOC(=O)CSc1nccc(-n2ccc(C(C)=O)n2)n1
Meloidogyne incognita; [6]
  Kill rate in % after 14d: 80%

## CCOC(=O)CSc1nccc(-n2cc(OC)cn2)n1
[1]; 500 ppm, cotton leaves dipped
  pest or weed control at 500 ppm: 95%

## O=C(CSc1nccc(-n2cc(Cl)cn2)n1)OCC(F)(F)C(F)(F)C(F)(F)F
[1]
  pest or weed control at 500 ppm: 99%

## O=C(O)CSc1nccc(-n2cc(-c3ccccc3)cn2)n1
[2]
  Kill rate in % after 7d: 100%

## Cc1cc(C)n(-c2ccnc(SCC(N)=O)n2)n1 [2-{[4-(3,5-dimethyl-1H-pyrazol-1-yl)-2-pyrimidinyl]thio}acetamide]
[3]
  enhancing effect on phleomycin: no enhancing effect

## COC(=O)CSc1nccc(-n2cc(C)cn2)n1 [drawing 167]
Meloidogyne incognita; Table A 1, emulsifier 1 part by weight
  Kill rate in % after 14d: 90%

## CCOC(=O)CSc1nccc(-n2cc(Cl)cn2)n1 [drawing 169]
Meloidogyne incognita; [6]
  Kill rate in % after 14d: 100%

## C#Cc1cnn(-c2ccnc(SCC(=O)OCC)n2)c1 [drawing 171]
Meloidogyne incognita; [6]
  Kill rate in % after 14d: 90%

## O=C(O)CSc1nccc(-n2cc(Cl)cn2)n1 [drawing 172]
Meloidogyne incognita; [6]
  Kill rate in % after 14d: 85%

## C=Cc1cnn(-c2ccnc(SCC(=O)OCC)n2)c1 [drawing 173]
Meloidogyne incognita; [6]
  Kill rate in % after 14d: 80%

## COc1cnn(-c2ccnc(SCC(=O)OC(C)C(F)(F)C(F)(F)C(F)(F)F)n2)c1 (stereo not drawn) [drawing 192]
[4]
  pest or weed control at 500 ppm: 100%

## CC(OC(=O)CSc1nccc(-n2cc(Br)cn2)n1)C(F)(F)C(F)(F)C(F)(F)F (stereo not drawn) [drawing 193]
[4]
  pest or weed control at 500 ppm: 100%

## COC(=O)CSc1nccc(-n2cc(C)cn2)n1 [drawing 194]
[5]; 500 ppm
  Kill rate in % after 6d: 100%

## COC(=O)CSc1nccc(-n2cc(Br)cn2)n1 [drawing 195]
[5]; 100 ppm
  Kill rate in % after 6d: 100%

## CCOC(=O)CSc1nccc(-n2cc(C)cn2)n1 [drawing 196]
[5]; 500 ppm
  Kill rate in % after 6d: 99%

## CCOC(=O)CSc1nccc(-n2cccn2)n1 [drawing 197]
Aphis gossypii
  Kill rate in % 7d after infection: 90%

## CCOC(=O)CN(C)c1nccc(-n2cccn2)n1 [drawing 198]
[1]; 500 ppm, cotton leaves dipped
  pest or weed control at 500 ppm: 99%

## CCOC(=O)CSc1nccc(-n2cc(C(F)(F)F)cn2)n1 [drawing 201]
[1]; 500 ppm, cotton leaves dipped
  pest or weed control at 500 ppm: 95%

## CN(CC(=O)OCC(F)(F)C(F)(F)C(F)(F)F)c1nccc(-n2cc(Cl)cn2)n1 [drawing 202]
[1]
  pest or weed control at 500 ppm: 95%

## CC(OC(=O)CSc1nccc(-n2cc(Cl)cn2)n1)C(F)(F)C(F)(F)C(F)(F)F (stereo not drawn) [drawing 204]
[1]
  pest or weed control at 500 ppm: 90%

## COc1cnn(-c2ccnc(SCC(=O)OCC(F)(F)F)n2)c1 [drawing 205]
[1]; 500 ppm, cotton leaves dipped
  pest or weed control at 500 ppm: 100%

## CCOC(=O)CSc1nccc(-n2cc(SC(F)(F)C(F)F)cn2)n1 [drawing 206]
[1]; 500 ppm, cotton leaves dipped
  pest or weed control at 500 ppm: 90%

## CCOC(=O)CSc1nccc(-n2cc(-c3ccccc3)cn2)n1 [drawing 207]
[2]
  Kill rate in % after 7d: 100%
